Where two headings read alike, the source gives them in different places.

The subject of assay [1] is aCD3/aCD28-stimulated human PBMCs. The assay can be described thus: Cytokine production in aCD3/aCD28 stimulated human PBMCs. Type of assay: cell-based. The conditions noted are these: PBMC, 18 h. The essentials:
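Ficoll-isolated human PBMCs at 1e6 cells/mL in X-Vivo15, stimulated with soluble anti-CD3/CD28 (OKT3 and 28.2, 1 μg/mL each) plus compound for 18 h at 37° C. Supernatant cytokines quantified by MSD or HTRF.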

Assay [2] relates to aCD3/aCD28-stimulated human CD4+-T-cells. The assay can be described thus: IL-2 production and activation markers in aCD3/aCD28 stimulated isolated human CD4+-T-cells. The conditions noted are these: IL-2 production at 3 μM compound. Type of assay: cell-based. The essentials:
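CD4+ T cells isolated from buffy-coat PBMCs by microbeads were plated in Xvivo medium (1.5*10^5 cells/well) and stimulated with anti-CD3/28 mAbs plus compound. IL-2 measured by ELISA in supernatants at 24 h or 48 h; CD25 and proliferation by flow cytometry, CD69 at 24 h. Activity classes based on IL-2 at 3 μM compound.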

The mark [3] stands for this setting: enhancement of IFN-γ production, read-out: Activity Class IFN-γ.
Where [4] appears, read: enhancement of IL-2 production, read-out: Activity Class IL-2.

`C=CCCNC(=O)c1ccc2c(c1)N(Cc1ccc(Cl)cc1)C(=O)[C@@H](N)CS2.Cl` [Example 64, (3R)-3-amino-N-(but-3-en-1-yl)-5-[(4-chlorophenyl)methyl]-4-oxo-2,3,4,5-tetrahydro-1,5-benzothiazepine-7-carboxamide hydrochloride]: the EC50 in assay [1] (setting [3]) was 1.58 to 5.01 µM; in assay [1] (setting [4]) it was above 5.01 µM. Moreover, in assay [2], the “Activity Class CD4+” value is “C (IL-2 production at 3 μM compound concentration between 2-fold increase as compared to mean IL-2 production of stimulated cells in the absence of compounds and <2 ng/mL)”.
On to `Cl.N[C@H]1CSc2cc(F)c(C(=O)NCC3CCOCC3)cc2N(Cc2ccc(Cl)cc2F)C1=O` [Example 55, (3R)-3-amino-5-[(4-chloro-2-fluorophenyl)methyl]-8-fluoro-N-(oxan-4-ylmethyl)-4-oxo-2,3,4,5-tetrahydro-1,5-benzothiazepine-7-carboxamide hydrochloride], for which the EC50 in assay [1] (setting [3]) and in assay [1] (setting [4]) was 1.58 to 5.01 µM each time. Also, the “Activity Class CD4+” value in assay [2] is “B (IL-2 production at 3 μM compound concentration between 2-10 ng/mL)”.
Turning to `Cl.N[C@H]1CSc2ccc(C(=O)NCCCC(F)(F)F)cc2N(Cc2ccc(Cl)cc2)C1=O` [Example 22, (3R)-3-amino-5-[(4-chlorophenyl)methyl]-4-oxo-N-(4,4,4-trifluorobutyl)-2,3,4,5-tetrahydro-1,5-benzothiazepine-7-carboxamide hydrochloride], the EC50 in assay [1] (setting [3]) and in assay [1] (setting [4]) was 1.58 to 5.01 µM each time. Also, the “Activity Class CD4+” value in assay [2] is listed as “B (IL-2 production at 3 μM compound concentration between 2-10 ng/mL)”.
For `CC(C)NC(=O)c1cc2c(cc1F)S(=O)(=O)C[C@H](N)C(=O)N2Cc1ccc(Cl)cc1F.Cl` [Example 87, (3R)-3-amino-5-[(4-chloro-2-fluorophenyl)methyl]-8-fluoro-1,1,4-trioxo-N-(propan-2-yl)-2,3,4,5-tetrahydro-1λ^6,5-benzothiazepine-7-carboxamide hydrochloride], the EC50 in assay [1] (setting [3]) and in assay [1] (setting [4]) was above 5.01 µM throughout. The “Activity Class CD4+” value in assay [2] is “C (IL-2 production at 3 μM compound concentration between 2-fold increase as compared to mean IL-2 production of stimulated cells in the absence of compounds and <2 ng/mL)”.
On to `CCCCNC(=O)c1cc2c(cc1F)SC[C@H](N)C(=O)N2Cc1ccc(Cl)c(F)c1` [Example 57, (3R)-3-amino-N-butyl-5-[(4-chloro-3-fluorophenyl)methyl]-8-fluoro-4-oxo-2,3,4,5-tetrahydro-1,5-benzothiazepine-7-carboxamide], for which the EC50 was below 1.58 µM in assay [1] (setting [3]) and 1.58 to 5.01 µM in assay [1] (setting [4]). Besides, in assay [2], the “Activity Class CD4+” value is “C (IL-2 production at 3 μM compound concentration between 2-fold increase as compared to mean IL-2 production of stimulated cells in the absence of compounds and <2 ng/mL)”.
With `CC(C)CNNC(=O)c1ccc2c(c1)N(Cc1ccc(Cl)cc1)C(=O)[C@@H](N)CS2.Cl` [Example 65, (3R)-3-amino-5-[(4-chlorophenyl)methyl]-N′-(2-methylpropyl)-4-oxo-2,3,4,5-tetrahydro-1,5-benzothiazepine-7-carbohydrazide hydrochloride], the EC50 in assay [1] (setting [3]) and in assay [1] (setting [4]) was 1.58 to 5.01 µM throughout. The “Activity Class CD4+” value in assay [2] was “C (IL-2 production at 3 μM compound concentration between 2-fold increase as compared to mean IL-2 production of stimulated cells in the absence of compounds and <2 ng/mL)”.
On to `Cl.N[C@H]1CSc2cc(F)c(C(=O)NCc3ccc(F)cc3)cc2N(Cc2ccc(Cl)cc2)C1=O` [Example 39, (3R)-3-amino-5-[(4-chlorophenyl)methyl]-8-fluoro-N-[(4-fluorophenyl)methyl]-4-oxo-2,3,4,5-tetrahydro-1,5-benzothiazepine-7-carboxamide hydrochloride], for which the EC50 is below 1.58 µM in assay [1] (setting [3]) and 1.58 to 5.01 µM in assay [1] (setting [4]). Moreover, the “Activity Class CD4+” value in assay [2] is reported as “B (IL-2 production at 3 μM compound concentration between 2-10 ng/mL)”.

The values are drawn from patent publication US10472341B2, “Bicyclic tetrahydrothiazepine derivatives useful for the treatment of neoplastic and/or infectious diseases” (APEIRON BIOLOGICS AG, priority 2015, dated 2019).
